Laboratory results published in patent US10105411B2, “Compositions and methods for modulating AT2R activity” (Novopyxis, Inc., priority 2014, dated 2018).
“Also recorded” adds a separate entry of the source. Where no end group is shown, it is not given here.

Assays:
MCL-1 [1] = assay: MCL-1 expression in human vascular smooth muscle cells (CAVSMCs); type: cell-based; settings: for MCL-1 expression (in words): human CAVSMCs, FIG. 1B; for effect of AT2R antagonist on NP-6AK-mediated MCL-1 upregulation: antagonist with NP-6AK agonist
Excerpt: (§1) Cells treated with the NP-6AK agonist generated higher MCL-1 upregulation relative to those treated with a partial agonist such as CGP42112A.

PC-12 cells = assay: Survival/viability of serum-starved PC-12 cells (MTS cell proliferation assay); type: cell-based
Protocol: (§2) Serum-starvation reduced survival of SH-SY5Y cells and PC-12 cells. […] Treatment of this cell line with 300 nM of NP-6AK agonist led to increased cell viability by over 30% relative to treatment with native ligand of AT2R Ang II (300 nM). […] AT2R activation by NP-6AK agonist promotes cell survival whereas AT2R activation by other ligands are harmful to it.

[2] = test system: mouse HL-1 cardiomyocytes; assay: Cell index (CI) cell survival, Xcelligence Real-Time Cell Analyzer, HL-1 cells; type: cell-based; settings: for increase in cell index (CI): serum starved HL-1 cells
Protocol: (§3) Thus, an NP-6AK agonist comprising the sequence Lys-Pro-Leu-Lys-Pro-Trp (SEQ ID NO. 2) promoted cell survival across mouse HL-1 cardiomyocytes and human smooth vascular muscle cells by acting through AT2R activation. Cell survival was assessed by measurement of cell index (CI) using a Xcelligence™ Real-Time Cell Analyzer (Westburg B V, Leusden, N L) to quantitatively determine the effect of different treatments on cell survival, adhesion, and proliferation. […] CGP42112A and the NP-6AK agonist (300 nM) increased CI of serum starved HL-1 cells in the order CGP42112A (≥14%), NP-6AK (≥25%). Increase in CI is a direct effect of AT2R activation. This was verified by addition of an AT2R antagonist, PD123319 (Sigma-Aldrich, Co. LLC, St. Louis, Mo.). In the presence of this antagonist, the cell survival otherwise observed using the NP-6AK agonist was not present.

[3] = test system: human smooth vascular muscle cells; assay: Cell index (CI) cell survival, Xcelligence Real-Time Cell Analyzer, human smooth vascular muscle cells; type: cell-based
Protocol: as §3

[4] = test system: primary murine embryonic cortical neurons; assay: Neuroprotection of primary cortical neurons under nutrient deprivation; type: cell-based; settings: 300 nm agonist; glucose-free Locke's medium; 14 DIV; p<0.05
Protocol: For nutrient deprivation, primary cortical neurons (14 DIV) were incubated in glucose-free Locke's medium with or without […] NP-6AK agonist.
Ex vivo neurons were obtained and treated with an NP-6AK agonist in different conditions to assess neuroprotective properties. Normal primary murine embryonic cortical neurons in culture (14 days in vitro) were challenged with nutrient deprivation by incubation in glucose-free Locke's medium (Schnapf et al. (1990)). These cultures were then supplemented with 300 nM NP-6AK agonist or no NP-6AK agonist.

SH-SY5Y cells [5] = assay: Survival of serum-starved SH-SY5Y cells (MTS cell proliferation assay); type: cell-based; settings: serum starvation
Protocol: as §2

MCL-1 [6] = assay: MCL-1 expression in HL-1 cardiomyocytes; type: cell-based, mouse; settings: for MCL-1 expression (in words): female mouse HL-1 cardiomyocytes, FIG. 1A; for effect of AT2R antagonist on NP-6AK-mediated MCL-1 upregulation: antagonist with NP-6AK agonist
Excerpt: as §1

SH-SY5Y cells [7] = assay: Neurite elongation in SH-SY5Y cells; type: cell-based; settings: FIG. 3A
MCL-1 [8] = assay: MCL-1 expression in SH-SY5Y cells (immunofluorescence staining); type: cell-based
Excerpt: The SH-SY5Y cell line is a neuronal cell line with both dopaminergic and adrenergic receptors.

Zucker Obese (ZO) rats = assay: Zucker Obese rat diabetic/cardiovascular model, 2 weeks subcutaneous treatment; type: in vivo
Protocol: Zucker Obese (ZO) rats (Charles River Laboratories, Inc., Wilmington, Mass.), a diabetic animal model displaying signs of cardiovascular disease were treated for 2 weeks (dose of 0.9 mg/kg/day) via subcutaneous injection with an NP-6AK agonist and assessed for several markers of cardiovascular health including blood markers and structural parameters of the heart. Controls were ZO rats that received saline.

[9] = 0.9 mg/kg/day s.c., vs saline ZO rats

## KPLKPW [NP-6AK agonist, AT2R agonist hexapeptide of the NP-6AK class]
MCL-1 [1]; 300 nM, human smooth vascular muscle cells, FIG. 1
  higher MCL-1 expression: 22%
MCL-1 [1]
  MCL-1 expression (in words): increases MCL-1 expression
PC-12 cells; MTS assay
  increased survival relative to treatment with 300 nM CGP42112A: over 70%
PC-12 cells; serum starvation
  survival rate: higher survival rate
[2]; 300 nM, cell index
  survival and proliferation compared with CGP42112A (300 nM): significantly better survival and more proliferation
[2]; 300 nM
  increase in cell index (CI): ≥ 25%
[3]
  survival and proliferation compared with CGP42112A (300 nM): significantly better survival and more proliferation
[4]
  increased activity compared with negative controls: 60%
SH-SY5Y cells [5]
  survival rate: higher survival rate
MCL-1 [6]; 300 nM, cardiomyocytes, FIG. 1
  higher MCL-1 expression: 45%
MCL-1 [6]
  MCL-1 expression (in words): increases MCL-1 expression
SH-SY5Y cells [7]
  neurite elongation: promotes neurite elongation
MCL-1 [8]; 300 nM, agonist alone, 24 hours, FIG. 2
  increase in MCL-1 expression: 2 fold
MCL-1 [8]; agonist added after Rapamycin, FIG. 3B
  MCL-1 expression after treatment with Rapamycin: reverses rapamycin-mediated suppression of MCL-1 expression; also recorded: able to recover MCL-1 expression
Zucker Obese (ZO) rats; [9]
  increased HDL on average: 12%
  reduced triglycerides (fasting plasma): ~50%
  reduced urine N-acetyl-beta-A-glucosaminidase: ~60%
  reduced urine protein: ~68%
Zucker Obese (ZO) rats; male ZO rat, 0.9 mg/kg/day
  Echocardiography/Strain analysis E/E: 26 ± 2.1
  Echocardiography/Strain analysis MPI: 0.389 ± 0.02
  Plasma Profile HDL: 73 ± 2.8 mg/dL
  Plasma Profile Triglycerides: 610 ± 109 mg/dL
  Urine Profile NA6: 10.9 ± 1.5 mg/dL
  Urine Profile Protein: 445 ± 86.4 mg/dL
Zucker Obese (ZO) rats; male ZO rat, 0.9 mg/kg/day, endocardium, short axis view
  Echocardiography/Strain analysis Circumferential Strain: −26.11 ± 2.47

## AngII: native ligand of AT2R
PC-12 cells; MTS assay
  cell survival relative to cells treated with AT2R antagonist PD123319: more detrimental

## Cc1cc(Cn2cnc3c2C[C@@H](C(=O)O)N(C(=O)C(c2ccccc2)c2ccccc2)C3)ccc1N(C)C [PD123319]
MCL-1 [1]
  effect of AT2R antagonist on NP-6AK-mediated MCL-1 upregulation: MCL-1 upregulation was not observed
MCL-1 [1]; listed as PD
  effect of AT2R antagonist on NP-6AK-mediated MCL-1 upregulation: prevents NP-6AK-mediated up regulation of MCL-1
PC-12 cells; PC-12 cells
  protective effects of the NP-6AK agonist when treated with AT2R antagonist: the protective effects of the NP-6AK agonist were lost
[2]; antagonist added to NP-6AK agonist treatment
  cell survival otherwise observed using the NP-6AK agonist, in presence of the AT2R antagonist: not present
MCL-1 [6]
  effect of AT2R antagonist on NP-6AK-mediated MCL-1 upregulation: MCL-1 upregulation was not observed
MCL-1 [6]; listed as PD
  effect of AT2R antagonist on NP-6AK-mediated MCL-1 upregulation: prevents NP-6AK-mediated up regulation of MCL-1

## CGP42112A
MCL-1 [1]
  MCL-1 expression (in words): unable to increase MCL-1
PC-12 cells; MTS assay
  cell survival relative to cells treated with AT2R antagonist PD123319: more detrimental
[2]; 300 nM
  increase in cell index (CI): ≥ 14%
MCL-1 [6]
  MCL-1 expression (in words): unable to increase MCL-1
